Patent US7935722B2 (Eli Lilly and Company, priority 2005, dated 2011)
“And” between values parts separate entries of the source, which are not always exact repeats. Identical values can stand only once. Like-named read-outs stand apart in the source and are kept apart here.

Legend:
[1] = molecular target: T1, human androgen receptor (AR) (Homo sapiens, UniProt P10275); assay: C2C12 AR/ARE reporter assay; type: cell-based
T1 construct: expressed in transfected cells; host or cells: mouse myoblast C2C12 cells, transiently co-transfected
T1 sequence (P10275 1-920): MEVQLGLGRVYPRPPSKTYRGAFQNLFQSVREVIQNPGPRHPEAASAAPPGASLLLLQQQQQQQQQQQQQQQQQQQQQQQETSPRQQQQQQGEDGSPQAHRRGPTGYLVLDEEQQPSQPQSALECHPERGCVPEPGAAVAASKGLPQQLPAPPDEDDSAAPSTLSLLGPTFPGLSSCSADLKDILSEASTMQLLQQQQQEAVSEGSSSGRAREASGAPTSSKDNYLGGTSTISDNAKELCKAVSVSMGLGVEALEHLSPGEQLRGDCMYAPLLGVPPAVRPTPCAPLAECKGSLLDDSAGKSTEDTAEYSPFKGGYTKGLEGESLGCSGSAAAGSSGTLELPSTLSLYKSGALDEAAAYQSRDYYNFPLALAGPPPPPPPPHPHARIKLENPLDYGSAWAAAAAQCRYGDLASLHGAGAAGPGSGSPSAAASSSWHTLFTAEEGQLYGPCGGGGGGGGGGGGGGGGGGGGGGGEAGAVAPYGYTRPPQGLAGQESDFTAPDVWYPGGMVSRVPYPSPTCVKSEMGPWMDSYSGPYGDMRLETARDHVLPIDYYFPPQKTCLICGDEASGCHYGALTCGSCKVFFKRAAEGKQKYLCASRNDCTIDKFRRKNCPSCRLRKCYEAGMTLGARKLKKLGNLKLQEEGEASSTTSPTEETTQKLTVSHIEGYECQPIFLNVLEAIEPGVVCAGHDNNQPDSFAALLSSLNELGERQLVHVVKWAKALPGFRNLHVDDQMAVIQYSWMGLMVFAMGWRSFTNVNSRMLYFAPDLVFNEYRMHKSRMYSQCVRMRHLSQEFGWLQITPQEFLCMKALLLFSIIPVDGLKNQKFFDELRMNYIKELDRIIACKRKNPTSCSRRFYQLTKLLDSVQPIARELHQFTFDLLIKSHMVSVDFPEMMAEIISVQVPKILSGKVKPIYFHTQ
Summary of the method: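 Mouse C2C12 myoblasts co-transfected with AR/ARE reporter were plated in charcoal-stripped serum and treated for 48 h with compound from about 0.01 nM to 10 μM. Luciferase activity gave EC50 by 4-parameter logistic fit. Efficacy is expressed as % of maximal stimulation by 10 nM methyltrienolone.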

[2] = molecular target: T2, human AR (androgen receptor) (Homo sapiens, UniProt P10275); assay: Steroid hormone nuclear receptor binding assay, AR binding
T2 construct: expressed in transfected cells; host or cells: 293 cells (293-AR lysate)
T2 sequence (P10275 1-920): T1 sequence (P10275 1-920)
Summary of the method: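 Competition binding with lysates of 293 cells overexpressing human AR, [3H]-methyltrienolone tracer, compounds from about 0.01 nM to 10 μM, overnight at 4 °C; non-specific binding set with 500 nM methyltrienolone. Bound tracer counted by scintillation after charcoal-dextran separation; IC50 converted to Ki by Cheng-Prusoff using Kd from saturation binding.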

[3] = C2C12, read-out: C2C12 % Efficacy
[4] = C2C12 AR/ARE reporter assay, average of n trials, read-out: C2C12 % Efficacy
[5] = C2C12 AR/ARE reporter assay, average of n trials, read-out: C2C12 EC50
[6] = average of n trials, read-out: AR binding Ki

Row | Compound | EC50 [1] | Emax [1, 3] | melting point | Ki [2] | Emax [1, 4] | EC50 [1, 5] | Ki [2, 6]
1 | CO/N=C/c1ccc2c(c1)c1c(n2Cc2cccc(F)c2)CC[C@@H](NC(=O)C2CC2)C1 [Example 205, (R)-Cyclopropanecarboxylic acid[9-(3-fluoro-benzyl)-6-(1-methoxyimino-methyl)-2,3,4,9-tetrahydro-1H-carbazol-3-yl]-amide] | 0.5 nM | 88.4% | 200 to 203 °C | 3 nM | – | – | –
2 | CC(C)C(=O)NC1CCc2c(c3cc(C(F)(F)F)ccc3n2Cc2cccc(F)c2)C1 (stereo not shown) [Example 55] | 2.5 nM | 82.9% | 131 to 138 °C | 11.2 nM | – | – | –
3 | CC(C)C(=O)NC1CCc2c(c3cc4c(cc3n2Cc2cccc(F)c2)OC(F)(F)O4)C1 (stereo not shown) [Example 99, N-[2,2-Difluoro-9-(3-fluoro-benzyl)-6,7,8,9-tetrahydro-5H-1,3-dioxa-9-aza-cyclopenta[b]fluoren-6-yl]-isobutyramide] | 9.4 nM | 69% | 197 to 199 °C | 6.2 nM | – | – | –
4 | CC(C)C(=O)NC1CCc2c(c3cc(Cl)ccc3n2Cc2cccc(Cl)c2)C1 (stereo not shown) [Example 22] | 75.7 nM | 74.7% | 187 to 189 °C | 3.5 nM | – | – | –
5 | CC(C)C(=O)NC1CCc2c(c3cc(-c4ccccn4)ccc3n2Cc2cccc(F)c2)C1 (stereo not shown) [Example 131, N-[9-(3-Fluorobenzyl)-6-pyridin-2-yl-2,3,4,9-tetrahydro-1H-carbazol-3-yl]isobutyramide] | 65.2 nM | 91.3% | 228 to 230 °C | 118 nM | – | – | –
6 | CC(C)C(=O)NC1CCc2c(c3cc(Br)ccc3n2Cc2cccc(Cl)c2)C1 (stereo not shown) [Example 36] | 20.7 nM | 99.4% | 186 to 188 °C | 7.6 nM | – | – | –
7 | Cc1ccc2c(c1)c1c(n2Cc2cccc(C#N)c2)CCC(NC(=O)C(C)C)C1 (stereo not shown) [Example 50] | 940 nM | 45.8% | 209 to 211 °C | 150 nM | – | – | –
8 | CC(C)C(=O)NC1CCc2c(c3cc(C(N)=O)ccc3n2Cc2cccc(F)c2)C1 (stereo not shown) [Example 63, 9-(3-Fluorobenzyl)-6-isobutyrylamino-6,7,8,9-tetrahydro-5H-carbazole-3-carboxylic acid amide] | 66.9 nM | 113% | 192 to 194 °C | 39.3 nM | – | – | –
9 | COc1ccccc1Cn1c2c(c3cc(F)ccc31)CC(NC(=O)C(C)C)CC2 (stereo not shown) [Example 6] | 1770 nM | 49.7% | 196 to 198 °C | 156 nM | – | – | –
10 | Cc1ccc2c(c1)c1c(n2Cc2ccccc2F)CCC(NC(=O)C(C)C)C1 (stereo not shown) [Example 43] | 462 nM | 69.6% | 174 to 176 °C | 104 nM | – | – | –
11 | COc1ccc2c(c1)c1c(n2Cc2ccccc2)CCC(NC(C)=O)C1 (stereo not shown) [Example 65, N-(9-Benzyl-6-methoxy-2,3-4,9-tetrahydro-1H-carbazol-3-yl)-acetamide] | – | – | 184 to 185 °C | – | 87.3% | 40.5 nM | 58.4 nM
12 | COC(=O)Nc1ccc2c(c1)c1c(n2Cc2cccc(F)c2)CC[C@@H](NC(=O)C(C)C)C1 [Example 190, (R)-[9-(3-Fluorobenzyl)-6-isobutyrylamino-6,7,8,9-tetrahydro-5H-carbazol-3-yl]-carbamic acid methyl ester] | 2.2 nM | 86% | 111 to 115 °C | 6.7 nM | – | – | –
13 | CC(C)C(=O)NC1CCc2c(c3cc(Cl)ccc3n2Cc2ccccc2F)C1 (stereo not shown) [Example 17] | 148 nM | 62.1% | 190 to 193 °C | 8.6 nM | – | – | –
14 | CC(C)C(=O)NC1CCc2c(c3cc(Cl)ccc3n2Cc2ccc(Cl)cc2)C1 (stereo not shown) [Example 26] | 301 nM | 33% | 176 to 178 °C | 16.6 nM | – | – | –
15 | CC(C)C(=O)NC1CCc2c(c3cc(Br)ccc3n2Cc2ccccc2C#N)C1 (stereo not shown) [Example 33] | 433 nM | 87.3% | 240 to 241.5 °C | 13 nM | – | – | –
16 | CCOC(=O)c1ccc2c(c1)c1c(n2Cc2cccc(F)c2)CCC(NC(=O)C(C)C)C1 (stereo not shown) [Example 52] | 5.6 nM | 73.2% | 226 to 228 °C | 6.1 nM | – | – | –
17 | CO/N=C/c1ccc2c(c1)c1c(n2Cc2cccc(F)c2)CCC(NC(=O)C(C)C)C1 (stereo not shown) [Example 199, N-[9-(3-Fluoro-benzyl)-6-(methoxyimino-methyl)-2,3,4,9-tetrahydro-1H-carbazol-3-yl]-isobutyramide] | – | – | 180 to 182 °C | – | 83.6% | 1.8 nM | 6.6 nM
18 | CC(C)C(=O)NC1CCc2c(c3cc4c(cc3n2Cc2cccc(F)c2)OCO4)C1 (stereo not shown) [Example 98, N-[9-(3-Fluoro-benzyl)-6,7,8,9-tetrahydro-5H-1,3-dioxa-9-aza-cyclopenta[b]fluoren-6-yl]-isobutyramide] | 40.8 nM | 104% | 250 to 255 °C | 7 nM | – | – | –
19 | CC(C)C(=O)NC1CCc2c(c3cccc(Cl)c3n2Cc2cccc(F)c2)C1 (stereo not shown) [Example 57] | 323 nM | 36.5% | 205 to 207 °C | 25.1 nM | – | – | –
20 | N#Cc1ccc2c(c1)c1c(n2Cc2cccc(F)c2)CCC(NC(=O)C2CC2)C1 (stereo not shown) [Example 193, Cyclopropanecarboxylic acid[6-cyano-9-(3-fluorobenzyl)-2,3,4,9-tetrahydro-1H-carbazol-3-yl]amide] | 7.9 nM | 92.7% | 208 to 210 °C and 207 to 209 °C | 4.3 nM | – | – | –
21 | CC(C)C(=O)NC1CCc2c(c3cc(Cl)ccc3n2Cc2ccccc2Cl)C1 (stereo not shown) [Example 18] | 153 nM | 82.1% | 197 to 199 °C | 10.5 nM | – | – | –
22 | CO/N=C/c1ccc2c(c1)c1c(n2Cc2ccccn2)CC[C@@H](NC(=O)C2CC2)C1 [Example 208, (R)-Cyclopropanecarboxylic acid[6-(1-methoxyimino-methyl)-9-pyridin-2-ylmethyl-2,3,4,9-tetrahydro-1H-carbazol-3-yl]-amide] | 3.8 nM | 96.3% | 215 to 217 °C | 21.1 nM | – | – | –
23 | CC(C)C(=O)NC1CCc2c(c3cc(-c4nccs4)ccc3n2Cc2cccc(F)c2)C1 (stereo not shown) [Example 130, N-[9-(3-Fluorobenzyl)-6-thiazol-2-yl-2,3,4,9-tetrahydro-1H-carbazol-3-yl]isobutyramide] | 5 nM | 85.6% | 221 to 225 °C | 13.6 nM | – | – | –
24 | CC(C)C(=O)NC1CCc2c(c3cc(S(C)(=O)=O)ccc3n2Cc2cccc(F)c2)C1 (stereo not shown) [Example 53] | 24.3 nM | 107% | 205 to 207 °C | 21.6 nM | – | – | –
25 | CC(C)C(=O)NC1CCc2c(c3cc(-c4nnc(N)s4)ccc3n2Cc2cccc(F)c2)C1 (stereo not shown) [Example 125, N-[6-(5-Amino[1,3,4]thiadiazol-2-yl)-9-(3-fluorobenzyl)-2,3,4,9-tetrahydro-1H-carbazol-3-yl]isobutyramide] | 68.5 nM | 75.8% | 251 to 254 °C | 55.1 nM | – | – | –
26 | CC(C)C(=O)N[C@@H]1CCc2c(c3cc(C#N)ccc3n2Cc2cccc(F)c2)C1 (single isomer, unassigned) [Example 123] | 1.8 nM | 87% | 223 to 225 °C | 1 nM | – | – | –
27 | CC(C)C(=O)NC1CCc2c(c3cc(Br)ccc3n2Cc2ccc(F)cc2)C1 (stereo not shown) [Example 39] | 28.9 nM | 76.1% | 165 to 170 °C | 5.3 nM | – | – | –
28 | CC(C)C(=O)NC1CCc2c(c3cc(C#N)ccc3n2Cc2ccccc2OC(F)(F)F)C1 (stereo not shown) [Example 100, N-[6-Cyano-9-(2-trifluoromethoxy-benzyl)-2,3,4,9-tetrahydro-1H-carbazol-3-yl]-isobutyramide] | 126 nM | 87.6% | 224 to 225 °C | 8 nM | – | – | –
